Like-named read-outs stand apart in the source and are kept apart here.
What was measured:
[1] = system: H1373 (KRAS mutant cell line); experiment: Proliferation Assay H1373; type: cell-based; conditions: Homo sapiens, NCI-H1373, N = 2 experiments
Procedure: (§1) The isogenic KRAS lines harboring G12D, G12C, and G12V were obtained from Horizon Discovery labs on a one year lease. These cells were cultured in McCoys media with 10% FBS to 80% confluency. Cells were then released from flasks via trypsinization and plated into 96-well plates at an initial density range of 2000 cells per well. Cells were allowed 24 hours to attach, and then the agents were added to the culture media at a range of concentrations from 0-100 μM. Cells were incubated for 72 hours with the drugs, and then viability was assessed using an MTS viability assay. Cells were exposed to MTS reagent (Promega) dissolved in PBS (Hyclone) at a concentration of 200 μL reagent/mL media for 2 hours. Absorbance was then read at 490 nm, and viability was expressed as a percentage normalized between the negative control (no cells plated) and the condition of cells with no drug added (100% viability) normalized as the upper limit of viability.
(§2) Our panel of 30 cell lines and an extensive characterization were obtained from Dr. John Minna (UTSW). All cell lines were cultured in RPMI 1640 with 10% FBS. Cells were treated with concentrations of agents at concentrations 0.01 to 50 μM and evaluated as described above. IC50's were determined using Excelfit.

[2] = system: H1975 (KRAS wildtype cell line); experiment: Proliferation Assay H1975; type: cell-based; conditions: Homo sapiens, NCI-H1975, n = 1
Procedure: as §1, §2

AKT1 PH-domain = target: T1, AKT1 PH-domain (Homo sapiens, UniProt P31749); experiment: SPR binding assay (Biacore T100), AKT1 PH-domain; conditions: read-out: AKT KD
T1 construct: The PH-domain His-fusion proteins (CNK1 and AKT1) were expressed and immobilized on a NTA chip; made in house
T1 sequence (P31749 5-108 limits assumed): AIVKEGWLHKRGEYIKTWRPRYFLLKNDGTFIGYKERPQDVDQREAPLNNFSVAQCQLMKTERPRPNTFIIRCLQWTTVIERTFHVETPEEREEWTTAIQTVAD
Procedure: (§3) All interaction analyses were done with a Biacore T100 Control Software v3.2, and BIAevaluation v4.1 analysis software (Biacore). The PH-domain His-fusion proteins (CNK1 and AKT1) were expressed and immobilized on a NTA chip to a level of 10,000 response units or less. Small molecule analytes at concentrations ranging from 50 μM to 0.010 μM were injected at a high flow rate (30 μL/min) DMSO concentrations in all samples and running buffer were 1-5% (v/v).
A commercially available docking package, GOLD (GOLD [3.2], CCDC: Cambridge, UK, 2007) was used to evaluate the docking of compounds 1-7 into the binding pocket, see e.g. Table 5. Other docking was performed using modeling algorithms with state-of-the-art commercial drug discovery software (Schrodinger suite). GLIDE was chosen as the docking algorithm used to select and optimize compounds, providing a GlideScore as a rough estimate of binding affinity that was used to rank and select the best compounds. Additionally, ligand-based approaches provided an alternative to structure based drug discovery. Ligand-based virtual screening methodologies can take into account shape and electrostatics (like ROCS) and the pharmacophoric features (acceptor, donor, hydrophobic, aromatic, etc.) of its functional groups. Inositol tetraphosphate (IP4) binding to the PH-domain of CNKSR1 provided a good starting point for shape screening. Both structure-based and ligand-based approaches were used to find novel compounds (Table 7) and to refine and improve lead compounds (Tables 8, and 9). SPR interaction analyses for Compounds 1 through 7 were performed with a Biacore 2000, using Biacore2000 Control Software v3.2 and BIAevaluation v4.1 analysis software (Biacore) as described in Mol Cancer Ther 7:2621 (2008). SPR interaction analyses of all other compounds was undertaken using a Biacore T100 with Control and Evaluation software kit.

[3] = system: H226 (KRAS wildtype cell line); experiment: Proliferation Assay H226; type: cell-based; conditions: Homo sapiens, NCI-H226, n = 1
Procedure: as §1, §2

[4] = system: A549 (KRAS mutant cell line); experiment: Proliferation Assay A549; type: cell-based; conditions: Homo sapiens, N = 2 experiments
Procedure: as §1, §2

CNK1 PH-domain (CNKSR1) = target: T2, CNK1 PH-domain (CNKSR1) (Homo sapiens, UniProt Q969H4); experiment: SPR binding assay (Biacore T100), CNK1 PH-domain; conditions: for Surface Plasmon Resonance CNKSR1 binding (RU max) / Surface Plasmon Resonance CNKSR1 stability (RU max post-injection): date 12 09 13
T2 construct: The PH-domain His-fusion proteins (CNK1 and AKT1) were expressed and immobilized on a NTA chip; made in house
T2 sequence (Q969H4 403-502 limits assumed): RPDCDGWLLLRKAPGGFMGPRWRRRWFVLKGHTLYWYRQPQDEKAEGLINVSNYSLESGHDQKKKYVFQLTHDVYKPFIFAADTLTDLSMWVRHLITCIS
Procedure: as §3
Other docking was performed using modeling algorithms with state-of-the-art commercial drug discovery software (Schrodinger suite). […] Additionally, ligand-based approaches provided an alternative to structure based drug discovery. Ligand-based virtual screening methodologies can take into account shape and electrostatics (like ROCS) and the pharmacophoric features (acceptor, donor, hydrophobic, aromatic, etc.) of its functional groups. […] SPR interaction analyses of all other compounds was undertaken using a Biacore T100 with Control and Evaluation software kit.

[5] = Mouse pharmacokinetics (iv); type: in vivo; conditions: for clearance: in vivo
[6] = system: mut-KRAS NSCLC cell lines; experiment: Screening against NSCLC cell line panel, mut-KRAS lines; type: cell-based; conditions: Table 5; read-out: Mean IC50 mut-KRAS
Procedure: as §1, §2

Row | SMILES | IC50 [1] [µM] | IC50 [2] [µM] | Kd (AKT1 PH-domain; Table 6) [µM] | IC50 [3] [µM] | IC50 [4] [µM] | Kd (CNK1 PH-domain (CNKSR1); Table 6, read-out: CNKS KD) [µM] | Surface Plasmon Resonance CNKSR1 binding (RU max) (CNK1 PH-domain (CNKSR1)) [RU * 100/Da] | Surface Plasmon Resonance CNKSR1 stability (RU max post-injection) (CNK1 PH-domain (CNKSR1)) [RU * 100/Da] | t1/2β [5] [h] | clearance [5] [L/h/kg] | Kd (AKT1 PH-domain; Table 8) [µM] | Kd (CNK1 PH-domain (CNKSR1); Table 8, read-out: CNK KD) [µM] | IC50 [6] [µM]
1 | Cc1ccc(-c2csc(Cn3nc(NS(=O)(=O)c4cccs4)c4ccccc4c3=O)n2)cc1 [Compound 5] | > 100 | 80 | 34.2 | > 100 | 90 | 51.3 | −0.695 | −0.158 |  |  |  |  | 
2 | Cc1ccc(-c2csc(Cn3nc(CC=O)c4ccccc4c3=O)n2)cc1 [Compound 79] |  |  |  |  |  | 4.2 |  |  | 0.583 | 1.8 |  |  | 
3 | CCOC(=O)CCc1cc(NS(=O)(=O)c2cccs2)c2c(c1OC)OCO2 [Compound 85, ethyl 3-(4-methoxy-7-(thiophene-2-sulfonamido)benzo[d][1,3]dioxol-5-yl)propanoate] | > 100 | > 100 |  | > 100 | > 100 |  | 1.026 | 1.515 |  |  | > 500 | > 500 | 
4 | CCOC(=O)/C=C/c1cc(NS(=O)(=O)c2cccs2)c2c(c1OC)OCO2 [Compound 86, (E)-ethyl 3-(4-methoxy-7-(thiophene-2-sulfonamido)benzo[d][1,3]dioxol-5-yl)acrylate] | > 100 | > 100 |  | > 100 | > 100 |  | −0.807 | −0.197 |  |  | > 500 | 123 | 
5 | COc1cc(NS(=O)(=O)c2cccs2)c(SC)c(/C=C/C(=O)O)c1O [Compound 104, (2E)-3-[2-hydroxy-3-methoxy-6-(methylsulfanyl)-5-(thiophene-2-sulfonamido)phenyl]prop-2-enoic acid] | 82 | > 100 |  | 75 | 60 |  | 2.132 | 2.049 |  |  | 4.8 | 1.56 | 
6 | CCOC(=O)/C=C/c1c(O)c(O)cc(NS(=O)(=O)c2cccs2)c1SC [Compound 105, ethyl (2E)-3-[2,3-dihydroxy-6-(methylsulfanyl)-5-(thiophene-2-sulfonamido)phenyl]prop-2-enoate] | 42 | > 100 |  | 70 | 100 |  | −0.676 | −0.197 |  |  | 6.22 | 2.86 | 
7 | CSc1c(NS(=O)(=O)c2cccs2)cc(O)c(O)c1/C=C/C(=O)O [Compound 106, (2E)-3-[2,3-dihydroxy-6-(methylsulfanyl)-5-(thiopliene-2-sulfonamido)phenyl]prop-2-enoic acid] | 58 | > 100 |  | 70 | 55 |  | −0.928 | 0.511 |  |  | 13.5 | 0.614 | 
8 | CCOC(=O)/C=C/c1c(O)c(OC)cc(N)c1SC [Compound 107, ethyl (E)-3-(5-amino-2-hydroxy-3-methoxy-6-methylsulfanylphenyl)prop-2-enoate] | 45 | 95 |  | 60 | 45 |  | −0.174 | −0.083 |  |  | 286 | 125 | 
9 | COc1cc(N)c(SC)c(/C=C/C(=O)O)c1O [Compound 108, (2E)-3-[3-amino-6-hydroxy-5-methoxy-2-(methylsulfanyl)phenyl]prop-2-enoic acid] | 38 | 100 |  | 55 | 30 |  | −0.024 | 0.056 |  |  | 133 | 72.5 | 
10 | CCOC(=O)/C=C/c1c(O)c(O)cc(N)c1SC [Compound 109, ethyl (2E)-3-[3-amino-5,6-dihydroxy-2-(methylsulfanyl)phenyl]prop-2-enoate] | > 100 | > 100 |  | > 100 | > 100 |  | 1.527 | 0.168 |  |  | 140 | 19.2 | 
11 | CSc1c(N)cc(O)c(O)c1/C=C/C(=O)O [Compound 110, (2E)-3-[3-amino-5,6-dihydroxy-2-(methylsulfanyl)phenyl]prop-2-enoic acid] | 28 | > 100 |  | 65 | 27 |  | 0.217 | 0.032 |  |  | 178 |  | 
12 | CSc1sc(C#N)c(C)c1-c1ccn(S(=O)(=O)c2ccc(Cl)cc2)n1 [Compound 117] |  |  |  |  |  |  |  |  |  |  |  |  | 21.9 ± 5.7
13 | O=S(=O)(Nc1n[nH]c(SCc2ccc(Cl)cc2)n1)c1ccc(-c2ccccn2)s1 [Compound 118] |  |  |  |  |  |  |  |  |  |  |  |  | 49.3 ± 0.6
14 | Cn1c(Cc2nn(C)c(=O)c3ccccc23)nnc1SCC(=O)c1ccc(Cl)cc1Cl [Compound 119] |  |  |  |  |  |  |  |  |  |  |  |  | > 50
15 | O=C(CSc1nnnn1-c1cccc(Cl)c1)c1cc2ccccc2o1 [Compound 121] |  |  |  |  |  |  |  |  |  |  |  |  | 46.7 ± 3.3
16 | N#Cc1cnn(-c2ccccc2)c1NC(=O)CSc1nnc(-c2ccco2)n1-c1ccc(F)cc1 [Compound 122] |  |  |  |  |  |  |  |  |  |  |  |  | > 50
17 | Cc1ccc(-c2csc(Cn3nc(CC(=O)N4CCN(C)CC4)c4ccccc4c3=O)n2)cc1 [Compound 123] |  |  |  |  |  |  |  |  | 5.45 | 1.86 |  |  | 

Reference: patent US9340532B2, “Methods and compositions for inhibiting CNKSR1” (PHUSIS THERAPEUTICS, INC., priority 2012, dated 2016)
